# Measurements from patent publication US20090286839A1, “PHYTONUTRIENT COMPOSITIONS FROM MUSHROOMS OR FILAMENTOUS FUNGI AND METHODS OF USE” (priority 2006, published 2009).
# Columns and labels:
# [1] = Super-oxide radical averting capacity (SORAC) assay; format: biochemical; details: pure ERG
# Description: SORAC assays were based on the previously described method by Zhao and coworkers. Simply, hydroethidine was used as a probe in measuring O2^− scavenging capacity. […] Addition of SOD inhibits the hydroethidine oxidation. All data was expressed as superoxide equivalents per gram of dry weight (kunitSOD eq/g dw). The freeze-dried forms of the mushrooms were used for testing and the data was reported as dry weight. When reporting amount per serving, the data was converted to a fresh weight basis according to the dry weight of the fresh mushroom samples. For each analysis, triplicate extractions from one crop were performed and used for analysis.
# Another biological relevant free radical is O2^− which is less reactive than HO., however O2^− does react very quickly with certain radicals, such as nitric oxide. The SORAC assay is a newly developed assay. Hydroethidine (nonfluorescent) is used as the probe, which is oxidized (fluoresces) in the presence of O2^− that is generated from a xanthine and xanthine oxidase mixture. If antioxidants present in the sample are able to scavenge O2^−, a delay in fluorescence will occur due to the protection of the probe offered by the antioxidant. Generally, compounds that can scavenge O2^− will provide high SORAC values. […]
# [2] = Hydroxyl radical averting capacity (HORAC) assay; format: biochemical; details: pure ERG
# Description: The HORAC assay was based on a previously reported method, however caffeic acid (CA) was used as the standard due to CA providing a wider linear range as compared to gallic acid. All data was expressed as micromoles of caffeic acid equivalents (CAE) equivalents per gram of dry weight (μmol CAE/g dw). The freeze-dried forms of the mushrooms were used for testing and the data was reported as dry weight. When reporting amount per serving, the data was converted to a fresh weight basis according to the dry weight of the fresh mushroom samples. For each analysis, triplicate extractions were performed from one crop and used for analysis.
# HO. radicals are highly reactive and can be generated via the Fenton reaction. Due to the fact that HO. radicals are short lived with a high rate constant, it is unlikely that antioxidants present at biological concentrations will be able to scavenge the HO radical. However antioxidants, which are able to act as metal chelators, may be able to prevent the formation of the HO. radical, thus acting as a preventative antioxidant. The HORAC assays measures the ability of the antioxidant present to chelate Co(II) prior to the Fenton reaction cocurring. HORAC values ranged between 3.0-13.6 μmole CAE/g dw. There was a significant difference found within the different A. bisporus mushrooms. […]
# [3] = cited from earlier work
# cortical neurons = assay: 2% Low Serum Assay, neuronal viability by MTT method; format: cell-based, chicken
# Experimental: Lohman or Hisex Brown chicken one-day-old fertilized eggs were obtained and stored in a lab under appropriate conditions of 12° C. and 80% humidity. At embryonic day 0 eggs were transferred into a breeding incubatore and stored under permanent turning until embryonic day 9 at 37.8° C. and 55% humidity. For isolation of neurons 4 to 6 chicken embryos were used per experiment. Neurons were plated out and nerve cells maintained in a nutrition medium at 37° C., 97% humidity, and 5% CO2.
# Test Item (T.I.) and Reference Item (R.I.) were administered at the start of the experiments for 8 days. Neurons were maintained in the same medium without change or addition of media until the end of the experiments. During the whole culture period of 8 days cells stay in an incubator at 37° C., 97% humidity, and 5% CO2.
# From T.I.1, L-Ergothioneine a 128 mM solution was prepared in medium and directly added to the cells at the start of the experiments for a total of 8 days. […] The pellet was discarded and only from the supernatant 1.25 μl up to 160 μl/ml medium was administered. R.I.2. the neurotrophic standard NTS is a ready to use injection solution and was applied in concentrations from 1.25 μl up ro 160 μl/ml medium. The stock-solution for R.I.3, Trolox, was made in a concentration of 2 mM in PBS and the appropriate concentrations added to the cells at day 1.
# To the isolated nerve cell T.I.1 was added in a dose range of 0.5, 1, 2, 4, 8, 16, 32, 64 mM. The supernatant of R.I.1 and the ready to use injection solution of R.I.2 were applied in the concentration 1.25, 2.5, 5, 10, 20, 40, 80, 160 μl/ml medium. R.I.3 was tested in the concentrations of 1, 2, 4, 8, 16, 31.25, 62.5, 125 μM. Experiments were performed at two different days, whereby on each day two identical microplates were prepared with two to four wells per T.I. or R.I. (n=8). In this 2% cell stress assay substances were administered at start of the experiment (day 1 in vitro) for the whole experimental period that means for eight days in vitro.
# Neuronal viability of cultures was determined with the MTT-assay using a plate-reader (570 nm) as described in SOP MET009. The MTT-assay is a sensitive assay measuring the mitochondrial dehydrogenase activity in viable cells only. It is performed according to the method described by Mosmann, J. Immunol. Meth., 1983, 55-63. This assay is based on the reduction of yellow MTT (3-(4,5-dimethylthiazol-2-yl)-2,5,diphenyl tetrazolium bromide), to dark blue formazan crystals by mitochondrial dehydrogenases (succinate dehydrogenase). Since this reaction is catalyzed in living cells only the assay can be used for the quantification of cell viability.
# For the determination of cell viability MTT solution was added to each well in a final concentration of 0.5 mg/ml. After 2 hours the MTT containing medium was aspired. Cells were lysed with 3% SDS, formazan crystals dissolved in isopropanol/HCI. To estimate optical density a plate reader (Anthos HT II) was used at wavelength 570 nm. Neuronal viability is expressed as optical densities (ODs).
# [4] = Peroxynitrite radical averting capacity (NORAC) assay; format: biochemical; details: pure ERG
# Experimental: The NORAC assay was modified on a previously reported method. All data was expressed as micromoles of Trolox equivalents (TE) equivalents per gram of dry weight (μmol of TE/g dw). The freeze-dried forms of the mushrooms were used for testing and then the data was converted to a FW basis according to the dry weight of the fresh mushroom samples, which were obtained from one crop. For each analysis, triplicate extractions were performed and used for analysis.
# Under physiological conditions, the formation of ONOO^− can easily result due to the cellular production and interaction of nitric oxide and superoxide radicals. Damage to protein, especially aromatic compounds can result from ONOO^−. A limited number of papers have been published regarding the antioxidant capacity against ONOO^−. The NORAC assay is a relatively new assay. SIN-1 is used in the NORAC assay, which when heated decomposes to produce ONOO^−. DHR-123 (non-fluorescent) is used as the probe, which becomes oxidized by the presence of ONOO^− to become rhodamine 123 (fluoresces). If antioxidants present in the sample are able to scavenge ONOO^−, a delay in fluorescence will occur due to the protection of the probe offered by the antioxidant. Generally, compounds that can scavenge ONOO^− will provide high NORAC values. […]
# [5] = Hydrophilic ORACFL assay (ORAChydro); format: biochemical; details: pure ERG
# Description: The lipophilic ORACFL assay (ORAClipo) was based on a previous reported method. Hydrophilic ORACFL assay (ORAChydro) was based on a previous reported method. All data was expressed as micromoles of Trolox equivalents (TE) per gram of dry weight (μmol TE/g dw). The freeze-dried forms of the mushrooms were used for testing and the data was reported as dry weight. When reporting amount per serving, the data was converted to a fresh weight basis according to the dry weight of the fresh mushroom samples. For each analysis, triplicate extractions were performed from one crop and used for analysis. ORACtotal was determined by calculating the sum of ORAClipo and ORAChydro results.
# [6] = 0.5 mM, addition at 1DIV, 8 days, n=8
# [7] = 1 mM, addition at 1DIV, 8 days, n=8
# [8] = 2 mM, addition at 1DIV, 8 days, n=8
# [9] = 4 mM, addition at 1DIV, 8 days, n=8
# [10] = 8 mM, addition at 1DIV, 8 days, n=8
# [11] = 16 mM, addition at 1DIV, 8 days, n=8
# [12] = 32 mM, addition at 1DIV, 8 days, n=8
# [13] = 64 mM, addition at 1DIV, 8 days, n=8
# [14] = Lohman or Hisex Brown, chicken, 8 days
# [15] = Gallus gallus, Cortical neurone, 192 h, read-out: viability, mean in % (control is 100%)
smiles,measurement,setting,value
"C[N+](C)(C)[C@@H](Cc1c[nH]c(=S)[nH]1)C(=O)[O-] [Ergo, L-ergothioneine]",SORAC value of ERG,[1],non-detectable
same,HORAC value of ERG,[2],231 μmole CAE/g
same,solubility in nonpolar solvents,[3]; nonpolar solvents,insoluble
same,water soluble up to,"[3]; water, room temperature",up to 0.9 M
same,"viability, mean in % (control is 100%)",cortical neurons; [6],98.13%
same,"viability, mean optical density",cortical neurons; [6],0.053 OD
same,"viability, mean in % (control is 100%)",cortical neurons; [7],104.42%
same,"viability, mean optical density",cortical neurons; [7],0.057 OD
same,"viability, mean in % (control is 100%)",cortical neurons; [8],105.10%
same,"viability, mean optical density",cortical neurons; [8],0.057 OD
same,"viability, mean in % (control is 100%)",cortical neurons; [9],110.39%
same,"viability, mean optical density",cortical neurons; [9],0.060 OD
same,"viability, mean in % (control is 100%)",cortical neurons; [10],119.84%
same,"viability, mean optical density",cortical neurons; [10],0.065 OD
same,"viability, mean in % (control is 100%)",cortical neurons; [11],189.48%
same,"viability, mean optical density",cortical neurons; [11],0.103 OD
same,"viability, mean in % (control is 100%)",cortical neurons; [12],262.66%
same,"viability, mean optical density",cortical neurons; [12],0.153 OD
same,"viability, mean in % (control is 100%)",cortical neurons; [13],407.45%
same,"viability, mean optical density",cortical neurons; [13],0.221 OD
same,neuroprotective concentration range,"cortical neurons; 2% low serum, 8 days, MTT",≥ 4 mM
same,maximum neuronal viability (% of untreated control),"cortical neurons; 2% low serum, 8 days, MTT, best concentration tested",407%
same,NORAC value of ERG,[4],407 μmole TE/g
same,ORAChydro value of ERG,[5],"6,440 μmole TE/g"
COc1c(O)cc2oc3cc(O)c(CC=C(C)C)c(O)c3c(=O)c2c1CC=C(C)C [Mangostin],"viability, mean optical density","cortical neurons; 1.25 μl/ml, addition at 1DIV, 8 days, n=8",0.051 OD
same,"viability, mean optical density","cortical neurons; 2.5 μl/ml, addition at 1DIV, 8 days, n=8",0.052 OD
same,"viability, mean optical density","cortical neurons; 5 μl/ml, addition at 1DIV, 8 days, n=8",0.053 OD
same,"viability, mean optical density","cortical neurons; 10 μl/ml, addition at 1DIV, 8 days, n=8",0.076 OD
same,"viability, mean optical density","cortical neurons; 20 μl/ml, addition at 1DIV, 8 days, n=8",0.064 OD
same,"viability, mean optical density","cortical neurons; 40 μl/ml, addition at 1DIV, 8 days, n=8",0.057 OD
same,"viability, mean optical density","cortical neurons; 80 μl/ml, addition at 1DIV, 8 days, n=8",0.059 OD
same,"viability, mean optical density","cortical neurons; 160 μl/ml, addition at 1DIV, 8 days, n=8",0.065 OD
same,maximum neuronal viability (% of untreated control),cortical neurons; [14],155%
same,"viability, mean in % (control is 100%)","cortical neurons; Lohman or Hisex Brown, chicken, 8 days, 1.25 μl/ml",93.86%
same,"viability, mean in % (control is 100%)","cortical neurons; Lohman or Hisex Brown, chicken, 8 days, 2.5 μl/ml",95.97%
same,"viability, mean in % (control is 100%)","cortical neurons; Lohman or Hisex Brown, chicken, 8 days, 5 μl/ml",98.32%
same,"viability, mean in % (control is 100%)","cortical neurons; Lohman or Hisex Brown, chicken, 8 days, 10 μl/ml",142.18%
same,"viability, mean in % (control is 100%)","cortical neurons; Lohman or Hisex Brown, chicken, 8 days, 20 μl/ml",155.61%
same,"viability, mean in % (control is 100%)","cortical neurons; Lohman or Hisex Brown, chicken, 8 days, 80 μl/ml",109.66%
same,"viability, mean in % (control is 100%)","cortical neurons; Lohman or Hisex Brown, chicken, 8 days, 160 μl/ml",120.33%
"Cc1c(C)c2c(c(C)c1O)CCC(C)(C(=O)O)O2 (stereo not drawn) [Trolox, 6-Hydroxy-2,5,7,8-tetramethylchroman2-carboxylic acid]","viability, mean optical density","cortical neurons; 1 μM, addition at 1DIV, 8 days, n=8",0.052 OD
same,"viability, mean optical density","cortical neurons; 2 μM, addition at 1DIV, 8 days, n=8",0.056 OD
same,"viability, mean optical density","cortical neurons; 4 μM, addition at 1DIV, 8 days, n=8",0.058 OD
same,"viability, mean optical density","cortical neurons; 8 μM, addition at 1DIV, 8 days, n=8",0.076 OD
same,"viability, mean optical density","cortical neurons; 16 μM, addition at 1DIV, 8 days, n=8",0.180 OD
same,"viability, mean optical density","cortical neurons; 31.25 μM, addition at 1DIV, 8 days, n=8",0.297 OD
same,"viability, mean optical density","cortical neurons; 62.5 μM, addition at 1DIV, 8 days, n=8",0.338 OD
same,"viability, mean optical density","cortical neurons; 125 μM, addition at 1DIV, 8 days, n=8",0.262 OD
same,viability at 1 µM,cortical neurons; [15],97.8%
same,viability at 2 µM,cortical neurons; [15],102%
same,viability at 4 µM,cortical neurons; [15],107%
same,viability at 8 µM,cortical neurons; [15],140%
same,viability at 16 µM,cortical neurons; [15],331%
same,viability at 31.25 µM,cortical neurons; [15],546%
same,viability at 62.5 µM,cortical neurons; [15],620%
same,viability at 125 µM,cortical neurons; [15],482%
same,maximum neuronal viability (% of untreated control),cortical neurons; [14],620%
